System: U2OS p53-shRNA cells
Experiment: MTT assay of U2OS cells with or without p53 depletion by shRNA
Type: cell-based, human
Details: same inhibitor concentration, p<0.02
Description: MTT assays are performed in U2OS cells with or without p53 depletion to analyze the role of p53 in YW3-56 mediated cell growth inhibition and autophagy.
U2OS and S-180 cells were cultured in Dulbecco modified Eagle medium (DMEM) supplemented with 10% fetal bovine serum and 1% penicillin-streptomycin in a 5% CO2 incubator. U2OS p53-shRNA and U2OS Ctrl-shRNA cells were generated as described in Li, P. et al., Regulation of p53 target gene expression by peptidylarginine deiminase 4. Mol Cell Bial 28 (15), 4745-4758 (2008). Concentrations and duration of YW3-56 treatment were performed as specified in the figures and text. For starvation assay, U2OS cells were first cultured in serum-free DMEM for 16 hr, 10% fetal bovine serum and different concentrations of YW3-56 was then added back and cells were further incubated for 8 hr before further analyses. SESN2 siRNA (Santa Cruz) and GFP siRNA (Dharmacon Inc.) were transfected into U2OS cells using the XtremeGene siRNA transfection reagents (Roche Inc.). Cells were incubated in the presence of the siRNA for 48 hr before adding YW3-56 and further incubated for 8 hr before analyses.

In the case of `CN(C)c1ccc2cc(C(=O)N[C@@H](CCCNC(=N)CCl)C(=O)NCc3ccccc3)ccc2c1` [YW3-56], the “efficacy on cell growth inhibition after p53 depletion” value was “decreased significantly”.
